Test results: patent US20150352075A1, “Treatment of Alzheimer's and Cognitive Impairment With Andrographolides” (INNOBIOSCIENCE, LLC, priority 2013, published 2015)

B1: Wnt-3a: conditioned medium of Wnt3a ligand, the canonical Wnt ligand (protein, UniProt P56704 19-352, looked up)
Protein Wnt-3a: SYPIWWSLAVGPQYSSLGSQPILCASIPGLVPKQLRFCRNYVEIMPSVAEGIKIGIQECQHQFRGRRWNCTTVHDSLAIFGPVLDKATRESAFVHAIASAGVAFAVTRSCAEGTAAICGCSSRHQGSPGKGWKWGGCSEDIEFGGMVSREFADARENRPDARSAMNRHNNEAGRQAIASHMHLKCKCHGLSGSCEVKTCWWSQPDFRAIGDFLKDKYDSASEMVVEKHRESRGWVETLRPRYTYFKVPTERDLVYYEASPNFCEPNPETGSFGTRDRTCNVSSHGIDGCDLLCCGRGHNARAERRREKCRCVFHWCCYVSCQECTRVYDVHTCK
modifications: conditioned medium

What was measured:
[1] = system: CA3-CA1 connections in hippocampal slices; test: Electrophysiology (fEPSP, PPF, LTP, LTD) in Wt hippocampal slices; type: cell-based, mice; conditions: hippocampal slices, LFS
Experimental: Slices were transferred to an experimental chamber (2 ml), superfused (3 ml/min, at 20-22° C.) with gassed ACSF and visualized by trans-illumination with a binocular microscope (MSZ-10, Nikon, Melville, N.Y.). […] The stimulation was in the Stratum Radiatum within 100-200 μm from the recording site. The paired pulse facilitation index was calculated by ((R2−R1)/R1), where R1 and R2 were the peak amplitudes of the first and second fEPSP respectively. To generate LTP we used Theta Burst Stimulation (TBS) consisting of 5 trains of stimulus with an inter-train interval of 20 s. Each train consisted of 10 bursts at 5 Hz and each burst having 4 pulses at 100 Hz. To generate LTD we used Low Frequency Stimulation (LFS) consisting in 900 paired pulses at 1 Hz. Recordings were filtered at 2.0-3.0 kHz, sampled at 4.0 kHz using an A/D converter, and stored with pClamp 10 (Molecular Devices). Evoked postsynaptic responses were analyzed off-line, using an analysis software (pClampfit, Molecular Devices), which allowed visual detection of events, computing only those events that exceeded and arbitrary threshold.

[2] = system: Wnt/β-catenin pathway in hippocampal slices; test: Wnt pathway mechanism in hippocampal slices (sFRP, Dkk-1, Dvl-3 mobility shift, time course); type: cell-based, mice; conditions: for time at which total levels of β-catenin increased: slices from 2 month-old wild-type mice, 5 μM ANDRO, Wnt3a conditioned medium or 10 μM 6-B10
Experimental: Slice preparation. […] Transverse slices (250-300 μm) from the dorsal hippocampus were cut under oxygen-saturated cold artificial cerebrospinal fluid using a Vibroslice microtome (VSL, World Precision Instruments, Inc WPI, Sarasota, Fla.). After obtained, slices were incubated in ACSF for at least than one hour at room temperature, in order to stabilize activity. In every moment during dissection, slicing and experimentation slices were oxygenated with 95% oxygen-5% carbon dioxide.
Briefly, tissues were homogenized in RIPA buffer (10 mM Tris-Cl, pH 7.4, EDTA 5 mM, 1% NP-40, 1% sodium deoxycholate, and 1% SDS) supplemented with a protease inhibitor mixture (1 mM PMSF, 2 μg/mL aprotinin, 1 μg/mL pepstatin and 10 μg/mL benzamidine) and phosphatase inhibitors (25 mMNaF, 100 mM Na3VO4, 1 mM EDTA and 30 μM Na4P207) using a Potter homogenizator and then passed sequentially through different caliber syringes. […] Protein concentration was determined using the BCA Protein Assay Kit (Pierce). Samples were resolved by […] 10% SDS-PAGE and transferred to a PVDF membrane. The reactions were followed by incubation with anti-mouse, anti-goat or anti-rabbit IgG peroxidase conjugated (Pierce, Rockford, Ill.) and developed using an ECL kit (Western Lightning Plus ECL, PerkinElmer).

[3] = system: Wnt target genes in cultured hippocampal neurons; test: PCR array of Wnt target genes in hippocampal neurons; type: cell-based, rat
Experimental: Primary culture of rat hippocampal neurons. […] PCR-ARRAY. RNA from hippocampal neurons was extracted using Trizol. Quantification and purity of RNA preparations were checked by absorbance using Nanodrop ND-2000. Only preparations with a 260/280 nm ratio ≧1.8, a 260/230 nm ratio ≧1.7 and no sign of RNA degradations, verified by agarose gel electrophoresis with Gel Red™ were used. Genomic DNA was degraded. Using RT2First-Strand cDNA Synthesis kit (SuperArray), 1 ng total RNA was reverse transcribed and then real-time PCR was performed by adding cDNA directly to PCR Master Mix, containing SYBR Green and ROX. The mixtures were then aliquoted into a 96-well PCR array plates, which profiles the expression of 84 Wnt target genes from rat. The PCR was run on ABI StepOnePlus, with 1 cycle of 10 min at 95° C. followed by 40 cycles of 15s at 95° C. and 1 min at 60° C. […] Treatment of neuronal cultures. Primary hippocampal cultures of neurons 14 DIV were washed twice in neurobasal medium and maintained for 1 hour. Next ANDRO (10 μM) and 6-BIO (10 μM) were added to different time periods.

[4] = system: HEK293T cells; test: TOPflash/FOPflash luciferase reporter assay; type: cell-based
Experimental: 150,000 HEK293T cells were seeded in triplicate per condition and kept for 24 hours at 37° C. with 5% CO2. The cultures were transfected with TOPflash or FOPflash (400 ng), which are firefly-luciferase reporter DNA constructs (Milipore), using LipofectAMINE 2000 (Invitrogen). To control for transfection pRL-TK (10 ng) was included in all transfections. […] Values were normalized by the renilla value from the same well. To statistically compare treatments ANOVA was used.

Row | Molecule | induction of LTD [1] | speed of increase in GSK3β pSer-9 and decrease in pTyr-216 ([2]; compared to Wnt-3a treatment) | time at which total levels of β-catenin increased [2] | Cdh-1 gene expression [3] | number of Wnt target genes specifically modulated ([3]; 9 h, of the 86 genes analyzed) | number of modulated Wnt target genes shared by both treatments ([3]; 9 h, of the 86 genes analyzed) | FOPflash reporter activity ([4]; 10 μM, 24 h) | TOPflash reporter activity ([4]; 10 μM, 24 h) | increase of luciferase reporter over control ([4]; HEK293T, TOPflash) | inhibition of β-catenin accumulation by Wnt antagonists sFRP and Dkk-1 ([2]; antagonist 15 min prior, 5 μM ANDRO or Wnt3a conditioned medium for 1 h)
1 | O=C1Nc2cc(Br)ccc2/C1=C1/Nc2ccccc2/C1=N\O [6-B10, 6-bromoindirubin-3′-oxime, reference compound] | complete inhibition of the induction of LTD | faster | 15 min | does not by 6-B10 | 4 genes | 4 | not in the FOPflash | significant increase in the TOPflash | ~6 fold | 
2 | B1 |  |  | 45 min |  |  |  |  |  |  | inhibit the accumulation of β-catenin in the presence of Wnt3a
